What was measured:
retinal lesions [1] = assay: Retinal lesion size by retinal photography in subjects having vitreomacular traction (VMT); assay type: in vivo, human; details: Case 1, lutein (10 mg) every other day, four months
retinal lesions [2] = assay: as above; assay type: in vivo, human
Excerpt: As used herein, the terms “units of diameter” and units made in reference to lesion size or diameter refer to units of diameter of the posterior pole of an eye, which measures ten units in diameter between the vascular arcades. A lesion can be larger than 19 units.
Diagnosis of vitreomacular traction (VMT): VMT can be symptomatic or asymptomatic. Complaints of reduced or distorted vision may or may not be reported by the subject. Measurement of visual acuity (VA) may or may not be normal or reduced in one or both eyes. Measurement for distortion on an Amsler grid may or may not show distortion in one or both eyes. Retinal photography may show signs of VMT in the original color composite image (e.g., upper left photo in four panel photo of FIG. 1A). Further analysis of the choroid (e.g., upper right photo in four panel photo of FIG. 1A), the retina (e.g., lower left photo in four panel photo of FIG. 1A), and the retinal nerve fibre layer (RNFL) (e.g., lower right photo in four panel photo of FIG. 1A), may reveal puckering, fibrosis, lamellar splitting, partial lamellar holes, pseudo macular holes, bulging and/or edema in the choroid, retinal and/or RNFL images. Further analysis with “3-D” images of the choroid, retina and RNFL layers may show elevations diagnostic of VMT, such as, for example, the presence, severity and/or size of puckering, partial lamellar holes, macular holes, bulging or edema. Further, “3-D” images can be useful for determining which layers of the eye tissue are affected by VMT.
Ocular imaging: retinal photographs were taken using a Canon CR-1 Digital Retinal Camera and analyzed using EyeScape Digital Imaging Software, version 7.5.5.
The settings used for taking retinal photographs were such that optimal contrast and brightness for each subject was achieved. Most retinal photographs were taken with a dilated pupil. Some subjects have naturally very large pupils. In these cases, pupil dilation may not have been required to obtain sufficient images. The Canon CR-1 has a setting for small pupils that was used as required.
Data were collected from 40 subjects having symptomatic VMT over a period of 4.5 years.
Subjects were treated daily with lutein and zeaxanthin as described in table 1.

[3] = Lutein 5 mg, zeaxanthin 0 mg, case 31
[4] = Lutein 18 mg, zeaxanthin 0 mg, case 13
[5] = Lutein 20 mg, zeaxanthin 0 mg, case 2
[6] = Lutein 0 mg, zeaxanthin 1 mg, case 27

| SMILES | ERM OD size after treatment (retinal lesions [1]; from 1.5 units) | OS macular pucker size after treatment (retinal lesions [1]; from 6.5 units) | OD lesion (units) (retinal lesions [2]; [3]) | OS lesion (units) (retinal lesions [2]; [3]) | OD lesion (units) (retinal lesions [2]; [4]) | OS lesion (units) (retinal lesions [2]; [4]) | OD lesion (units) (retinal lesions [2]; [5]) | OS lesion (units) (retinal lesions [2]; [5]) | OD lesion (units) (retinal lesions [2]; [6]) | OS lesion (units) (retinal lesions [2]; [6]) |
| --- | --- | --- | --- | --- | --- | --- | --- | --- | --- | --- |
| CC1=C[C@H](O)CC(C)(C)[C@H]1/C=C/C(C)=C/C=C/C(C)=C/C=C/C=C(C)/C=C/C=C(C)/C=C/C1=C(C)C[C@@H](O)CC1(C)C [lutein] | 0.5 units | 5.0 units | 0 units | 0.5 units | 0 units | 0 units | 0 units | 3 units | – | – |
| CC1=C(/C=C/C(C)=C/C=C/C(C)=C/C=C/C=C(C)/C=C/C=C(C)/C=C/C2=C(C)C[C@@H](O)CC2(C)C)C(C)(C)C[C@H](O)C1 [zeaxanthin] | – | – | – | – | – | – | – | – | 0.5 units | 0.5 units |

— patent publication US20140186302A1, “Nutritional Formulations and Method for Treating Diseases” (priority 2012, published 2014)
